# Assay results published in patent US20260216143A1, “PHARMACEUTICAL COMPOSITION FOR TREATING CHRONIC KIDNEY DISEASE” (priority 2020, published 2026).
# Experiments:
# [1] = test system: Alport syndrome model (129-Col4a3tm 1Dec/J) mice; assay: Body weight of Alport syndrome (AS) mice (Example 2); type: in vivo, mouse; conditions: FIG. 16; groups receiving a DHA ethyl ester; p<0.01, t test
# Experimental: Body weight was measured using a scale for animals twice weekly from the grouping day and daily from the day of the first animal death until the sampling day of each group.
# Animals were restrained, and a test substance was administered directly into the stomach using a 1-mL syringe and a sonde (Fuchigami Kikai, CAT No. 5200). Administration was performed in accordance with the conditions described in Section 5.1., so that a volume of 5 mL/kg should be administered to each animal. The volume administered was calculated on the basis of the most recent (before the administration day) body weight.
# The mean and standard error of the body weight and the wet weight of each organ were calculated for each study group. Further, each of the measured values was compared between the Group Number (2) and each of other groups. A statistical analysis add-in software “Excel Statistics 2015” (Social Survey Research Information Co., Ltd.) was used for statistical processing, and a significant difference was determined with a […] (p value)<0.05.
# [2] = test system: Alport syndrome model (129-Col4a3tm1Dec/J) mice; assay: Survival of Alport syndrome model mice, oral repeated administration (Example 1); type: in vivo, mouse; conditions: Pirespa 100 mg/kg/day, FIG. 1
# Experimental: Each test substance is orally and repeatedly administered to Alport syndrome model (129-Col4a3tm1Dec/J) mice for 10 weeks, and then a serum biochemistry test is performed. The kidneys are further observed histopathologically to examine the effect of administration of each test substance on the kidneys.
# Test substances were prepared for each use before use on the experiment day. Candesartan was dissolved at a dose of 4 mg/mL in phosphate-buffered saline (hereinafter referred to as PBS) to prepare a dosing solution (10 mg/2.5 mL/kg) for Group Numbers 6 and 7. A solution was prepared by diluting this dosing solution with an equal amount of PBS as a dosing solution (10 mg/5 ml/kg) for Group Number 3. Pirespa was dissolved at a dose of 40 mg/mL in PBS and dissolved in PBS which was to be a dosing solution (50 mg/1.25 mL/kg) for Group Number 6. A solution was prepared by diluting this dosing solution with an equal amount of PBS as a dosing solution (50 mg/2.5 mL/kg) for Group Number 4. Lotriga was suspended at a dose of […] in a 0.5% methylcellulose solution (hereinafter referred to as MC) to prepare a dosing solution (1500 mg/2.5 mL/kg) for Group Number 7. […]
# Animals were restrained, and a test substance was orally administered using a 1-mL syringe and a sonde. […] The volume administered was calculated on the basis of the most recent body weight. […]
# [3] = test system: Alport syndrome model (129-Col4a3tm1Dec/J) mice; assay: Histopathological test of the kidneys: HE, PAS, MT, PAM staining and damage scoring (Example 1); type: in vivo, mouse
# Experimental: (§1) The body weights of animals were measured at Day 45, blood was drawn from the caudal vena cava under anesthesia with isoflurane, and animals were euthanized by exsanguination. Death was confirmed by visually observing cardiopulmonary arrest (euthanasia). Then, the left and right kidneys, the left and right femurs, the left and right eyeballs, the cochlea, the heart, and the pancreas were collected and trimmed, and the wet weights of the left and right kidneys, the left and right femurs, and the heart were measured. Among the collected biotissues, the left and right femurs were immersed in a 70% ethanol solution. Other tissues were immersed in a 10% neutral buffered formalin solution. Of note, the right kidney was divided into two at the renal pelvis and immersed after to obtain kidney specimens.
# The kidneys immersed in a 10% neutral buffered formalin solution were sent to the external facility, and Hematoxylin-Eosin (HE) staining, Periodic Acid-Schiff (PAS) staining, Masson's Trichrome (MT) staining, and Periodic Acid Methenamine silver (PAM) staining were performed for pathological assessment.
# The severity of glomerular damage was assessed in each group of Alport syndrome model mice. Specifically, the severity was quantified for glomerulosclerosis, crescent formation, and basement membrane with a double contour with five levels (0, no change; 1, slight; 2, mild; 3, moderate; 4, severe. Refer to “Guidance on pathological diagnosis of diabetic nephropathy and hypertensive nephrosclerosis,” Tokyo Igakusha).
# The severity of renal tubular damage was assessed in each group of Alport syndrome model mice. Specifically, the severity was quantified for renal tubular expansion accompanied by hyaline casts, interstitial fibrosis, inflammatory cell infiltration into the interstitium, and renal tubular expansion accompanied by cellular casts with five levels (0, no change; 1, slight; 2, mild; 3, moderate; 4, severe. Refer to “Guidance on pathological diagnosis of diabetic nephropathy and hypertensive nephrosclerosis,” Tokyo Igakusha).
# Col4a3−/− mice = conditions: cited from earlier work
# [4] = test system: Alport syndrome model (129-Col4a3tm1Dec/J) mice; assay: Body weight of Alport syndrome model mice (Example 1); type: in vivo, mouse; conditions: FIG. 2; body weight immediately before death used for dead mice; candesartan 10 mg/kg, Lotriga 1500 mg/kg
# Experimental: Body weight was measured using a scale for animals twice weekly from the grouping day and on the sampling day of each group.
# Animals were restrained, and a test substance was orally administered using a 1-mL syringe and a sonde. Administration was performed in accordance with the conditions described in Section 5.1., so that a volume of approximately 0.1 mL should be administered to each animal. The volume administered was calculated on the basis of the most recent body weight. […] The administration interval was 6 hours or longer.
# Of note, when the mean body weight was calculated, the body weight of a dead mouse was not assumed as zero, and the body weight measured immediately before death was used for calculation.
# [5] = test system: Alport syndrome model (129-Col4a3tm1Dec/J) mice; type: in vivo; conditions: FIG. 4
# Experimental: as §1
# The obtained blood was allowed to stand at room temperature for at least four hours and centrifuged under conditions of 4° C., 12000 rpm, and 3 min to obtain serum. Serum was divided into two tubes and frozen.
# Blood biochemistry test items were measured using the frozen serum delegated to the external facility. The measurement items were total protein, albumin, blood urea nitrogen (BUN), creatinine (CRE), uric acid, sodium (Na), potassium (K), chloride (CI), calcium, phosphorus, amylase, lipase, AST (GOT), ALT (GPT), Y-GTP, LDH, triglyceride, total cholesterol, HDL cholesterol, total bilirubin, and glucose. Pooled specimens of each group were used for measurement.
# [6] = serum, pooled specimens per group, Day 45
smiles,measurement,setting,value
"CC/C=C\C/C=C\C/C=C\C/C=C\C/C=C\C/C=C\CCC(=O)OCC [DHA ethyl ester, docosahexaenoic acid ethyl ester]",mean body weight vs untreated group,[1],significantly increased as compared with the untreated group
Cc1ccc(=O)n(-c2ccccc2)c1 [Pirespa],survival (in words),"[2]; up to Day 45, candesartan 10 mg/kg, Lotriga 1500 mg/kg",all mice died early
"CCOc1nc2cccc(C(=O)OC(C)OC(=O)OC3CCCCC3)c2n1Cc1ccc(-c2ccccc2-c2nn[nH]n2)cc1 (stereo not drawn) [candesartan, Candesartan cilexetil]","kidney histopathology, HE staining findings",[3]; FIG. 7,"adhesion to the glomerulus due to glomerulosclerosis and crescent formation, renal tubular expansion, and lymphocyte infiltration into the interstitium were observed at various sites"
same,"kidney histopathology, PAS staining findings",[3]; FIG. 8,"glomerulosclerosis, in which PAS-positive substances were deposited on the mesangial substrate, and growth of crescent cells were observed"
same,"kidney histopathology, MT staining (fibrosis)",[3]; FIG. 9,Fibrosis was observed in an area of crescent hyperplasia and in the renal tubular interstitium
same,"kidney histopathology, PAM staining (double contour of the loop wall)",[3]; FIG. 10,A double contour of the loop wall was observed
same,survival rate,"[2]; Day 45 (end of study), candesartan 10 mg/kg once daily, Lotriga 1500 mg/kg once daily",40%
same,serum urea concentration,Col4a3−/− mice,markedly decreased
same,survival time,Col4a3−/− mice,significantly prolonged
same,urine protein level,Col4a3−/− mice,markedly decreased
same,changes with time in the mean body weight,[4],"body weight loss began from 25 days after administration, and marked body weight loss was also observed in surviving mice"
same,progression of renal failure,[5]; judged from blood biochemistry,at a level comparable to that in the untreated group
same,BUN level,[5]; [6],very high and as high as in the untreated group
same,K level,[5]; [6],development of hyperkalemia
same,creatinine level,[5]; [6],very high and as high as in the untreated group
CCOC(=O)[C@H](CCc1ccccc1)N[C@@H](C)C(=O)N1[C@H](C(=O)O)C[C@@H]2CCC[C@@H]21 [ramipril],serum urea concentration,Col4a3−/− mice,markedly decreased
same,survival time,Col4a3−/− mice,significantly prolonged
same,urine protein level,Col4a3−/− mice,markedly decreased
